In patent US8173693B2, “Benzenesulfonamide derivatives and pharmaceutical composition thereof” (Purzer Pharmaceutical Co., Ltd., priority 2010, dated 2012):

Experiments:
[1] = tested on: lung carcinoma A549 cells; assay: In vitro migration assay (scratch); type: cell-based; settings: 0, 0.5, or 10 μM, 18 hr, microscope images
Experimental: Lung carcinoma A549 cells (BCRC 60074; BCRC) were maintained in RPMI 1640 supplied with 10% fetal bovine serum and maintained in a humidified chamber at 37° C. containing 5% CO2. All the cell lines were developed for two generations every week.
In the in vitro migration assay, a scratch was mechanically made on the monolayer of cells to form a line-shaped scratch with cytological exfoliation. The scratch may lead the edge of the cell monolayer to close.
When the monolayered A549 cells were saturated, a scratch was made using a 200-μL tip directly on the monolayer of the A549 cells. Cells were then treated with GM119 with a concentration of 0, 0.5, or 10 μM. After incubation for 18 hr, all the migrations were tracked with a microscope.

[2] = tested on: 4T1-Luc cells; assay: In vitro analysis on cell morphology; type: cell-based, murine; settings: 48 hr
Experimental: After the 4T1-Luc cells were treated with GM119, a phase-contrast microscope was used to observe the cell morphology of the 4T1-Luc cells. Cover glasses were placed in 6-well plates, and each well was seeded with 50,000 tumor cells. The tumor cells were developed in medium with 10% fetal bovine serum, and then treated with 0, 0.01, 0.1, 1, or 10 μM of GM119 for 48 hr. The cells were stained with Giemsa Stain solution (0.38 g of Giemsa powder, 15% of methanol, and 5% of glycerol). After the cells were washed, dried, and sealed, the images of the cells were photographed with a phase-contrast microscope.

[3] = tested on: Human gastric adenocarcinoma AGS cells; assay: SRB assay; type: cell-based; settings: 48 hr
Experimental: (§1) Human Bladder Cancer TSGH cells, Human hepatoblastoma HepG2 cells, Human colorectal adenocarcinoma HT-29 cells, human nasopharyngeal carcinoma KB cells, Human gastric adenocarcinoma AGS cells, Human breast carcinoma MCF-7 cells, lung carcinoma A549 cells, and Human prostate carcinoma PC-3 cells were used in the preliminary cytotoxicity assays of the benzenesulfonamide derivatives of the present invention, and the inhibition activity against the tumor cells was evaluated.
(§2) All cell lines were maintained in RPMI 1640 supplied with 10% fetal bovine serum into 96-well microtiter plates and maintained in a humidified chamber at 37° C. containing 5% CO2. After 24 hr, cell lines in partial wells were fixed in situ with 10% trichloroacetic acid (TCA) to represent a measurement at the time of drug addition (T0). Then, cell lines in other wells were incubated with the benzenesulfonamide derivatives of the present invention for an additional 48 hr, and fixed in situ with 10% TCA to represent a measurement at the time of stopping reaction (Tx). After rinsing the plates with PBS and air-drying, 0.4% sulforhodamine B solution (weight per volume in 1% acetic acid) was added to each well and the plates were incubated for 10 min at room temperature. Unbound sulforhodamine B was removed with 1% acetic acid and the plates were air-dried. Cells bound with sulforhodamine B was subsequently solubilized with 10 mM Tris base (Trizma; Sigma). Cell proliferation was determined by measuring the optical density at 515 nm using a Thermomax microplate reader (Molecular Devices, Sunnyvale, Calif.). The half-inhibition concention (GI50) of the benzenesulfonamide derivatives of the present invention was obtained from the detected optical density.

[4] = tested on: lung carcinoma A549 cells; assay: SRB assay; type: cell-based; settings: Homo sapiens, 48 hr
Experimental: as §1, §2

[5] = tested on: Human colorectal adenocarcinoma HT-29 cells; assay: SRB assay; type: cell-based; settings: 48 hr
Experimental: as §1, §2

[6] = tested on: Human breast carcinoma MCF-7 cells; assay: SRB assay; type: cell-based; settings: MCF7, 48 hr
Experimental: as §1, §2

[7] = tested on: Human colorectal adenocarcinoma HT-29 cells; assay: SRB assay; type: cell-based; settings: 48 hr; remark: listed apart in the source
[8] = tested on: Human Bladder Cancer TSGH cells; assay: MTT assay; type: cell-based; settings: 72 hr
[9] = tested on: Human gastric adenocarcinoma AGS cells; assay: MTT assay; type: cell-based; settings: 72 hr
[10] = tested on: Human colorectal adenocarcinoma HT-29 cells; assay: MTT assay; type: cell-based; settings: 72 hr
[11] = tested on: Human breast carcinoma MCF-7 cells; assay: MTT assay; type: cell-based; settings: MCF7, 72 hr
[12] = tested on: A549 non-small cell lung cancer; assay: MTT assay; type: cell-based; settings: Homo sapiens, 72 hr
[13] = tested on: Human prostate carcinoma PC-3 cells; assay: MTT assay; type: cell-based; settings: 72 hr
[14] = tested on: human nasopharyngeal carcinoma KB cells; assay: MTT assay; type: cell-based
[15] = tested on: Human hepatoblastoma HepG2 cells; assay: MTT assay; type: cell-based; settings: 72 hr, read-out: IC50 HepaG2
[16] = tested on: HeLa Cervical cancer; assay: MTT assay; type: cell-based; settings: Homo sapiens, 72 hr
Experimental: (§3) All cell lines were maintained in RPMI 1640 supplied with 10% fetal bovine serum and maintained in a humidified chamber at 37° C. containing 5% CO2. Then, all cell lines were treated with compounds for 72 hr and subsequently incubated with 0.4 mg/mL of MTT at 37° C. for 2 hr. The medium was removed, and DMSO was added to dissolve MTT precipitate. Cell proliferation was determined by measuring the optical density at 540 nm using a Thermomax microplate reader (Molecular Devices, Sunnyvale, Calif.), and the IC50 values of the benzenesulfonamide derivatives of the present invention were calculated.

[17] = tested on: WI-38 Normal lung fibroblast; assay: MTT assay; type: cell-based; settings: Homo sapiens
Experimental: as §3

[18] = tested on: COLO-205 Colon cancer; assay: MTT assay; type: cell-based; settings: Homo sapiens, 72 hr
Experimental: as §3

[19] = tested on: WSI Normal skin fibroblast; assay: MTT assay; type: cell-based
Experimental: as §3

[20] = tested on: lung carcinoma A549 cells; assay: SRB assay; type: cell-based; settings: Homo sapiens, 48 hr; remark: listed apart in the source
[21] = tested on: CL1-5 non-small cell lung cancer; assay: SRB assay; type: cell-based; settings: 48 hr
Experimental: as §2

[22] = tested on: MCF-7/ADR multidrug-resistant breast cancer; assay: SRB assay; type: cell-based; settings: Homo sapiens, NCI/ADR-RES
Experimental: as §2

[23] = tested on: HeLa Cervical cancer; assay: SRB assay; type: cell-based; settings: Homo sapiens, 48 hr
Experimental: as §2

[24] = tested on: H1299 non-small cell lung cancer; assay: SRB assay; type: cell-based; settings: Homo sapiens, NCI-H1299, 48 hr
Experimental: as §2

[25] = tested on: Human hepatoblastoma HepG2 cells; assay: SRB assay; type: cell-based; settings: 48 hr

For `COc1ccc(S(=O)(=O)Nc2cccc3c2[nH]c2c(C)ccc(C)c23)cc1` [Compound 6c, N-(5,8-Dimethyl-9H-carbazol-1-yl)-4-methoxybenzenesulfonamide], which “inhibition on the migration of the A549 cells” value [1] is on record?
Its value is “the inhibition on the migration of the A549 cells was greater as the concentration of the GM119 was increased”.

What about the “growth of the 4T1 cells (microscope images)” value ([2]; 0.01 μM) of the same compound?
Its value is “the growth of the 4T1 cells can be inhibited”.

What about the “inhibition of the 4T1 cells (microscope images)” value ([2]; 10 μM) of the same compound?
The value was “the inhibition of the 4T1 cells is apparent”.

What about the GI50 [3] of the same compound?
The GI50 was 600 nM.

What about the GI50 [4] of the same compound?
The GI50 was 280 nM.

What about the GI50 [5] of the same compound?
Its GI50 is 320 nM.

What about the GI50 [6] of the same compound?
Its GI50 is 630 nM.

And the IC50 [7]?
Its IC50 is 9000 nM.

And the IC50 [8]?
The IC50 was 500 nM.

What about the IC50 [9] of the same compound?
The IC50 was 1400 nM.

And the IC50 [10]?
The IC50 was 400 nM.

And the IC50 [11]?
The IC50 was 240 nM.

And the IC50 [12]?
The IC50 was 1120 nM.

And the IC50 [13]?
Its IC50 is 240 nM.

What about the IC50 ([14]; Homo sapiens, KB, MTT assay, 72 hr) of the same compound?
Its IC50 is 800 nM.

What about the “inhibitory activity against KB cells compared with E7070” value ([14]; own MTT value vs literature value) of the same compound?
The value was “has higher inhibitory activity against KB cells than E7070”.

What about the IC50 [15] of the same compound?
The IC50 was 400 nM.

And the IC50 [16]?
Its IC50 is 600 nM.

And the IC50 [17]?
The IC50 was greater than 10000 nM.

And the IC50 [18]?
Its IC50 is 50 nM.

What about the IC50 [19] of the same compound?
The IC50 was greater than 10000 nM.

And the IC50 [20]?
The IC50 was 10000 nM.

What about the GI50 [21] of the same compound?
The GI50 was 260 nM.

What about the GI50 [22] of the same compound?
The GI50 was 390 nM.

And the GI50 [23]?
Its GI50 is 190 nM.

What about the GI50 [24] of the same compound?
The GI50 was 460 nM.

And the IC50 [25]?
The IC50 was 1000 nM.
